Values joined by “and” are separate entries in the source; they are usually repeats but may differ in a detail not shown here. Equal values may be shown once. Read-outs that look alike come from different tables or passages of the source.

The source of these data is US6080772A, “Thiazole compounds and methods of modulating signal transduction” (Sugen, Inc., priority 1997, dated 2000).

The subject of one assay is primary adipocytes. The experiment in a line: Primary adipocyte glucose uptake assay (14C glucose). The note with it: test compound 50 mM without insulin, compared to samples containing only insulin (final concentration=100 μm).
In the next assay the test system is insulin receptor (IR). Briefly: Phosphotyrosine enzyme linked immunosorbent assay: pTyr on insulin receptor in NIH3T3 cells over-expressing human IR (H25 cells). To be noted: for CONC. / ACTIVITY (compared to control): Table I; for CONC.: concentration of the compound which produces the percentage increase in phosphotyrosine over the vanadate control, 90 min incubation, no insulin; for EC50: read-out: ACTIVITY EC50.

As to `Cc1ccsc1/C=C/c1ccnc(Sc2ncc([N+](=O)[O-])s2)n1` [Compound 98], the “response in the primary adipocyte glucose uptake assay compared with the insulin control” value (shortened to “response … compared with the insulin control”) in the assay with primary adipocytes is “did not give a response greater than or equal to the insulin control”. Still for that read-out and setting: for `C#CCSc1nnc(Sc2ncc([N+](=O)[O-])s2)s1` [Compound 92, 2-[(5-Nitrothiazol-2-yl)mercapto]-5-propargylmercapto-1,3,4-thiadiazole] the value was “did not give a response greater than or equal to the insulin control”. As for `O=[N+]([O-])c1cnc(Sc2nnc(O)n2Cc2ccccc2)s1` [Compound 7], the “response … compared with the insulin control” value with primary adipocytes is given as “did not give a response greater than or equal to the insulin control”. Moreover, the CONC. in the assay on insulin receptor (IR) was 200 µM and 100 µM. For the same molecule, in the assay with insulin receptor (IR) (Table II, […], no lot stated), the concentration giving a half-maximal response (EC50) is 13 µM. Take `Cc1nccc(C(F)(F)F)c1-c1nnc(Sc2ncc([N+](=O)[O-])s2)o1` [Compound 86, 2-[2-Methyl-4-(trifluoromethyl)pyrid-3-yl]-5-[(5-nitrothiazol-2-yl)mercapto]-1,3,4-oxadiazole]: the “response … compared with the insulin control” value in the assay on primary adipocytes is on record as “did not give a response greater than or equal to the insulin control”. Besides, in the assay with insulin receptor (IR) (Table II, at 25 μM), the “increase in PTYR” value is 59%. Consider `Cn1c(O)nnc1Sc1ncc([N+](=O)[O-])s1` [Compound 99], for which, in the assay on primary adipocytes, the “response … compared with the insulin control” value is listed as “did not give a response greater than or equal to the insulin control”. The “one point determination, effect on PTYR” value with insulin receptor (IR) (Table II, at 100 μm) was “no effect”.

Take `CCCCCC(=O)Nc1ccc(-n2nnnc2Sc2ncc([N+](=O)[O-])s2)cc1` [Compound 89, 1-[4-(n-Hexanoylamino)phenyl]-5-[(5-nitrothiazol-2-yl)mercapto]tetrazole]: in the assay with primary adipocytes, the “response … compared with the insulin control” value is listed as “did not give a response greater than or equal to the insulin control”. Take `CC(C)n1c(Sc2ncc([N+](=O)[O-])s2)nc2cc(Cl)ccc21` [Compound 96(a), 5-Chloro-1-isopropyl-2-[(5-nitrothiazol-2-l)mercapto]benzimidazole]: in the assay with primary adipocytes, the “response … compared with the insulin control” value is reported as “did not give a response greater than or equal to the insulin control”. In the case of `Cn1nnnc1Sc1ncc([N+](=O)[O-])s1` [Compound 15], the “response … compared with the insulin control” value in the assay on primary adipocytes is “did not give a response greater than or equal to the insulin control”. Also, in the assay on insulin receptor (IR) (Table II, at 50 μM, LOT2), the “increase in PTYR” value is given as 40%. For the same molecule, the concentration for a half-maximal effect (EC50) with insulin receptor (IR) (Table II, LOT 1) stood at 8.4 µM. As to `Nc1nnc(Sc2ncc([N+](=O)[O-])s2)s1` [Compound 14], the “response … compared with the insulin control” value in the assay on primary adipocytes was “did not give a response greater than or equal to the insulin control”. Moreover, the concentration giving a half-maximal response (EC50) in the assay on insulin receptor (IR) (Table II, […], no lot stated) stood at 8 µM. Regarding `O=[N+]([O-])c1cnc(Sc2n[nH]c(-c3cccs3)n2)s1` [Compound 3, 3-[(5-nitrothiazol-2-yl)mercapto]-5-(thien-2-yl)-1,2,4-triazole], the “response … compared with the insulin control” value with primary adipocytes was “did not give a response greater than or equal to the insulin control”. Also, in the assay on insulin receptor (IR) ([…]), the “ACTIVITY (compared to control)” value was 50%. The molecule further yielded a CONC. in the assay with insulin receptor (IR) of 77 µM. Moreover, in the assay with insulin receptor (IR) (Table II, […], no lot stated), the EC50 was in the range of 22 to 32 µM. As for `O=[N+]([O-])c1cnc(Sc2nnc(O)n2-c2ccccc2C(F)(F)F)s1` [Compound 8, 3-hydroxy-5-[(5-nitrothiazol-2-yl)mercapto]-4-[2-(trifluoromethyl)phenyl]-1,2,4-triazole], in the assay on primary adipocytes, the “response … compared with the insulin control” value is reported as “did not give a response greater than or equal to the insulin control”. Further, the “ACTIVITY (compared to control)” value in the assay on insulin receptor (IR) ([…]) turned out to be 30%. The same molecule yielded a CONC. with insulin receptor (IR) of 24 µM.

Consider `Cn1ccnc1Sc1ncc([N+](=O)[O-])s1` [Compound 13, 1-Methyl-2-[(5-nitrothiazol-2-yl)mercapto]imidazole], for which, in the assay with primary adipocytes, the “response … compared with the insulin control” value is reported as “did not give a response greater than or equal to the insulin control”. For the same molecule, the EC50 was 13 µM in the assay with insulin receptor (IR) (Table II, LOT 1) and 14 µM in the assay with insulin receptor (IR) (Table II, LOT 2). For the molecule `O=[N+]([O-])c1cnc(Sc2nnnn2-c2cccc(O)c2)s1` [Compound 88, 1-(3-Hydroxyphenyl)-5-[(5-nitrothiazol-2-yl)mercapto]tetrazole], the “response … compared with the insulin control” value in the assay on primary adipocytes is “did not give a response greater than or equal to the insulin control”. On the same count and under the same terms, for `O=[N+]([O-])c1cnc(Sc2nc3cc4c(cc3[nH]2)OCCO4)s1` [Compound 90, 7-[(5-Nitrothiazol-2-yl)mercapto]-benzimidazo[5,6-b]1,4-dioxane] the value was “did not give a response greater than or equal to the insulin control”.

On to `O=[N+]([O-])c1cnc(Sc2nc3cc(C(F)(F)F)cc(Cl)c3[nH]2)s1` [Compound 41, 4-Chloro-2-[(5-nitrothiazol-2-yl)mercapto]-6-(trifluoromethyl)benzimidazole], for which the concentration for a half-maximal effect (EC50) in the assay with insulin receptor (IR) (Table III, […]) turned out to be 10 µM. Still for that read-out and setting: to `Cc1ccc(Nc2nnc(Sc3ncc([N+](=O)[O-])s3)s2)cc1` [Compound 69, 2-(4-Methylphenylamino)-5-[(5-nitrothiazol-2-yl)mercapto]-1,3,4-thiadiazole] belongs > 100 µM; to `Cc1ccc(Nc2nnc(Sc3ncc([N+](=O)[O-])s3)s2)c(C)c1` [Compound 71, 2-(2,4-Dimethylphenylamino)-5-[(5-nitrothiazol-2-yl)mercapto]-1,3,4-thiadiazole], 24 µM.

As for `O=[N+]([O-])c1cnc(Sc2nnnn2-c2ccccc2)s1` [Compound 91, 5-[(5-Nitrothiazol-2-yl)mercapto]-1-phenyltetrazole], the “response … compared with the insulin control” value in the assay on primary adipocytes is “did not give a response greater than or equal to the insulin control”. As to `Cc1nnc(Sc2ncc([N+](=O)[O-])s2)s1` [Compound 60, 2-Methyl-5-[(5-nitrothiazol-2-yl)mercapto]-1,3,4-thiadiazole], in the assay with insulin receptor (IR) (Table III, […]), the EC50 is > 100 µM. For the molecule `Cc1nc2nc(Sc3ncc([N+](=O)[O-])s3)[nH]c2cc1Br` [Compound 19], the EC50 with insulin receptor (IR) (Table III, […]) is > 100 µM. For the molecule `CCNC(=O)n1c(Sc2ncc([N+](=O)[O-])s2)nc2cc([N+](=O)[O-])ccc21` [Compound 18, 1-Ethylaminocarbonyl-5-nitro-2-[(5-nitrothiazol-2-yl)mercapto]benzimidazole], the concentration for a half-maximal effect (EC50) in the assay on insulin receptor (IR) was found to be 16 µM. For `O=[N+]([O-])c1cnc(Sc2nnc(Sc3nnc(Sc4cc(O)ccc4O)s3)s2)s1` [Compound 27, 2-(2,5-Dihydroxyphenylmercapto)-5-[[2-[(5-nitrothiazol-2-yl)mercapto]-1,3,4-thiadiazol-5-yl]mercapto]-1,3,4-thiadiazole], the EC50 with insulin receptor (IR) (Table III, […]) turned out to be 96 µM. Regarding `O=[N+]([O-])c1cnc(Sc2ncc[nH]2)s1` [Compound 87, 2-[(5-Nitrothiazol-2-yl)mercapto]imidazole], the “response … compared with the insulin control” value in the assay on primary adipocytes is on record as “did not give a response greater than or equal to the insulin control”. Turning to `CCOC(=O)c1nc(Sc2ncc([N+](=O)[O-])s2)[nH]c1C(=O)OCC` [Compound 48, 4,5-Di(ethoxycarbonyl)-2-[(5-nitrothiazol-2-yl)mercapto]imidazole], the half-maximal effective concentration (EC50) in the assay on insulin receptor (IR) (Table III, […]) is > 100 µM. Same read-out and setting: to `Cn1c(=O)n(C)c2nc(Sc3ncc([N+](=O)[O-])s3)ncc21` [Compound 36, 1,3-Dimethyl-5-[(5-nitrothiazol-2-yl)mercapto]imidazo[4,5-d]pyrimid-2-one] belongs > 100 µM; to `COc1ccccc1Nc1nnc(Sc2ncc([N+](=O)[O-])s2)s1` [Compound 76, 2-(2-Methoxyphenylamino)-5-[(5-nitrothiazol-2-yl)mercapto]-1,3,4-thiadiazol], 63.8 µM; to `O=[N+]([O-])c1cnc(Sc2nnnn2Cc2ccccc2)s1` [Compound 80, 1-Benzyl-5-[(5-nitrothiazol-2-yl)mercapto]tetrazole], 7.8 µM. Same read-out and setting: to `Nc1nnc(Sc2ncc([N+](=O)[O-])s2)s1` [Compound 59, 2-Amino-5-[(5-nitrothiazol-2-yl)mercapto]-1,3,4-thiadiazole] belongs > 100 µM; to `O=[N+]([O-])c1cnc(Sc2nnc(Nc3ccccc3Cl)s2)s1` [Compound 81, 2-(2-Chlorophenylamino)-5-[(5-nitrothiazol-2-yl)mercapto]-1,3,4-thiadiazole], 34 µM; to `Cn1c(Sc2ncc([N+](=O)[O-])s2)nc2cc(C(F)(F)F)cnc21` [Compound 53], > 25 µM. Same read-out and setting: for `Cc1ccc2nc(Sc3ncc([N+](=O)[O-])s3)[nH]c2c1` [Compound 50, 5-Methyl-2-[(5-nitrothiazol-2-yl)mercapto]benzimidazole] the value was > 100 µM. Consider `CCSc1nnc(Sc2ncc([N+](=O)[O-])s2)s1` [Compound 28, 2-Ethylmercapto-5-[(5-nitrothiazol-2-yl)mercapto]-1,3,4-thiadiazole], for which the EC50 with insulin receptor (IR) (Table III, […]) worked out at 35 µM. With `O=[N+]([O-])c1cnc(Sc2nccc(-c3ccc(-n4cnc(Cl)c4Cl)cc3)n2)s1` [Compound 67, 4-[4-(4,5-Dichloroimidazol-1-yl)phenyl]-2-[(5-nitrothiazol-2-yl)mercapto]pyrimidine], in the assay with insulin receptor (IR) (Table III, […]), the EC50 was 3 µM. On the same count and under the same terms, for `Cc1cc(C)c(Nc2nnc(Sc3ncc([N+](=O)[O-])s3)s2)c(C)c1` [Compound 72, 2-[(5-Nitrothiazol-2-yl)mercapto]-5-(2,4,6-trimethylphenylamino)-1,3,4-thiadiazole] the value was 20 µM.

For `CC(=O)Nc1ccc(-n2nnnc2Sc2ncc([N+](=O)[O-])s2)cc1` [Compound 31, 1-(4-Acetamidophenyl)-5-[(5-nitrothiazol-2-yl)mercapto]tetrazole], in the assay on insulin receptor (IR) (Table III, at 50 μM), the “increase (PTYR)” value was determined as 49%. In the assay with insulin receptor (IR) (Table III, […]), the EC50 was > 100 µM.

Usually EC50 stands for the midpoint of the concentration-response curve.
